Experimental findings from patent US20230322789A1, “PYRAZOLOPYRIDAZINONE COMPOUND, AND PHARMACEUTICAL COMPOSITION AND USE THEREOF” (BroadenBio Co., Ltd., priority 2020, published 2023) are described below.

In one assay the target is HPK1 (Homo sapiens (Human), UniProt Q92918). Description: HPK1 kinase activity inhibition test (ADP-Glo, luminescence). It is filed as biochemical. The following applies: HPK1 5 nM, ATP 2 μM, read-out: IC50, inhibitory effects of compounds on HPK1 kinase activity. Put shortly: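 HPK1 autophosphorylation was run without added substrate. Kinase and compound were preincubated 10 min at 25° C., then ATP was added for 60 min at 25° C. ADP formed was detected by ADP-Glo luminescence, and IC50 was taken from a four-parameter nonlinear fit.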
(In general: ADP-Glo turns the ADP formed in a reaction into a luminescent signal.)

The test system of another assay is Human Jurkat-E6-1 cells. Put plainly: Measurement of IL-2 secretion of Jurkat cells by ELISA. The following applies: anti-CD3/anti-CD28 stimulation 24 hours; for activity at 3 µM / activity at 1 µM: Homo sapiens, Jurkat E6.1, read-out: Percentage of the amount of IL-2 secreted from compound treated/DMSO-treated cells; for activity at 1 µM: test compound 1.0 μM. The assay is classed as cell-based. Put shortly: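 Jurkat-E6-1 cells pre-incubated with compound for 30 min at 37° C, then stimulated 24 h with plate-bound anti-CD3 plus soluble anti-CD28. Secreted IL-2 in medium quantified by sandwich ELISA against a standard curve; expressed as percent of DMSO-treated cells.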
A general note: An ELISA detects its analyte on a solid surface through an enzyme-linked reagent.

Some results are limits rather than exact numbers.

Sequence of HPK1 (Q92918 whole entry): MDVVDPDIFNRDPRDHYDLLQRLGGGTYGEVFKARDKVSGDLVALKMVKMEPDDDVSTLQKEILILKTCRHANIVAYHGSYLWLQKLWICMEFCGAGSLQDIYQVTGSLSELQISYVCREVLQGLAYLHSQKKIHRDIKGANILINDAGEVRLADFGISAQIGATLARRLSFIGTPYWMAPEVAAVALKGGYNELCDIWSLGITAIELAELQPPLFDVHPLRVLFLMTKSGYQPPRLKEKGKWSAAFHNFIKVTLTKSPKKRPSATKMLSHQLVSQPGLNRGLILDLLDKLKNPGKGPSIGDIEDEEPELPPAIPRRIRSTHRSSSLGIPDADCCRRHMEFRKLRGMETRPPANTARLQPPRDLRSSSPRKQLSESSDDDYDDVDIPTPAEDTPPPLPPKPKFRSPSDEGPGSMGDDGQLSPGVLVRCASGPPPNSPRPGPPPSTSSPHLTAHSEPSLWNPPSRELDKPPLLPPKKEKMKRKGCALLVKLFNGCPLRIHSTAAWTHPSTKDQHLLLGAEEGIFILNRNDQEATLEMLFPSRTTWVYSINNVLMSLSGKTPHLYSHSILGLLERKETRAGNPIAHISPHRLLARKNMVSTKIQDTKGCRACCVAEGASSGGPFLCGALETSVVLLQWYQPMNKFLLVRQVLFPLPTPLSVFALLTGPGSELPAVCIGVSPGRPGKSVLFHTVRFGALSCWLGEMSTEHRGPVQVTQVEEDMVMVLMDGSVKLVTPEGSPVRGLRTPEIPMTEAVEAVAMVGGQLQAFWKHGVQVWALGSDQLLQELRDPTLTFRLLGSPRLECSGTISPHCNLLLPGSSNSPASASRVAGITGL

As to `CCc1cccc(F)c1-n1nc2c(-c3ccc(N4CCN(C)CC4)nc3)n[nH]c2cc1=O` [Compound 98, 5-(2-ethyl-6-fluorophenyl)-3-(6-(4-methylpiperazin-1-yl)pyrid-3-yl)-1H-pyrazolo[4,3-c]pyridazin-6(5H)-one], the IC50 (in general, the concentration that inhibits the measured activity by half) on HPK1 was no more than 50 nM. Besides, the activity at 3 µM with Human Jurkat-E6-1 cells (test compound 3.0 μM) amounted to 850%.
Consider `Cc1cccc(F)c1-n1nc2c(-c3ccc4c(c3)CN3C(=O)OC[C@@H]3C4)n[nH]c2cc1=O` [Compound 177, (S)-7-(5-(2-fluoro-6-methylphenyl)-6-oxo-5,6-dihydro-1H-pyrazolo[4,3-c]pyridazin-3-yl)-10,10a-dihydro-1H-oxazolo[3,4-b]isoquinolin-3(5H)-one], for which, on HPK1, the IC50 was no more than 50 nM. The activity at 3 µM in the assay on Human Jurkat-E6-1 cells (test compound 3.0 μM) is 481%.
The matching figures for `Cc1cc(C#N)cc(F)c1-n1nc2c(-c3ccc(N4CCN(C(=O)[C@H](C)N)CC4)cc3)n[nH]c2cc1=O` [Compound 82]: no more than 50 nM and 195%.
For the molecule `CN1CCN(c2ccc(-c3n[nH]c4cc(=O)n(-c5ccccc5F)nc34)cc2)CC1` [Compound 6, 5-(2-fluorophenyl)-3-(4-(4-methylpiperazin-1-yl)phenyl)-1H-pyrazolo[4,3-c]pyridazin-6(5H)-one], at HPK1, the IC50 was no more than 50 nM. Further, the activity at 1 µM in the assay with Human Jurkat-E6-1 cells stood at 185%.
As for `COc1cccc(F)c1-n1nc2c(-c3ccc(N4CCC(C)(N)CC4)cc3)n[nH]c2cc1=O` [Compound 146, 3-(4-(4-amino-4-methylpiperidin-1-yl)phenyl)-5-(2-fluoro-6-methoxyphenyl)-1H-pyrazolo[4,3-c]pyridazin-6(5H)-one], the IC50 on HPK1 is no more than 50 nM. Also, the activity at 3 µM in the assay with Human Jurkat-E6-1 cells (test compound 3.0 μM) stood at 537%.
For `COc1cccc(F)c1-n1nc2c(-c3ccc(N4CCC(C)(OC)CC4)cc3)n[nH]c2cc1=O` [Compound 141, 5-(2-fluoro-6-methoxyphenyl)-3-(4-(4-methoxy-4-methylpiperidin-1-yl)phenyl)-1H-pyrazolo[4,3-c]pyridazin-6(5H)-one] the same measures were no more than 50 nM and 390%.
For `COc1cccc(F)c1-n1nc2c(-c3ccc(N4CCN(C)C(CO)C4)cc3)n[nH]c2cc1=O` (centres unmarked) [Compound 121, 5-(2-fluoro-6-methoxyphenyl)-3-(4-(3-(hydroxymethyl)-4-methylpiperazin-1-yl)phenyl)-1H-pyrazolo[4,3-c]pyridazin-6(5H)-one] the same measures were no more than 50 nM and 459%.
The matching figures for `COc1cccc(F)c1-n1nc2c(-c3ccc(N4CCN(CCO)CC4)cc3)n[nH]c2cc1=O` [Compound 113, 5-(2-fluoro-6-methoxyphenyl)-3-(4-(4-(2-hydroxyethyl)piperazin-1-yl)phenyl)-1H-pyrazolo[4,3-c]pyridazin-6(5H)-one]: no more than 50 nM and 368%.
For `Cc1cccc(F)c1-n1nc2c(-c3ccc(N4CCN5CCOC[C@@H]5C4)cc3)n[nH]c2cc1=O` [Compound 133, (S)-5-(2-fluoro-6-methylphenyl)-3-(4-(hexahydropyrazino[2,1-c][1,4]oxazin-8(1H)-yl)phenyl)-1H-pyrazolo[4,3-c]pyridazin-6(5H)-one], on HPK1, the IC50 is no more than 50 nM. The activity at 3 µM in the assay with Human Jurkat-E6-1 cells (test compound 3.0 μM) is 800%.
For `Cc1cccc(F)c1-n1nc2c(-c3ccc(N4CC5CCC(C4)N5C)cc3)n[nH]c2cc1=O` [Compound 61, 5-(2-fluoro-6-methylphenyl)-3-(4-(8-methyl-3,8-diazabicyclo[3.2.1]octan-3-yl)phenyl)-1H-pyrazolo[4,3-c]pyridazin-6(5H)-one] the same measures were no more than 50 nM and 635%.
The matching figures for `COc1cccc(F)c1-n1nc2c(-c3ccc(N4CCN(CC(C)(C)O)CC4)cc3)n[nH]c2cc1=O` [Compound 115, 5-(2-fluoro-6-methoxyphenyl)-3-(4-(4-(2-hydroxyl-2-methylpropyl)piperazin-1-yl)phenyl)-1H-pyrazolo[4,3-c]pyridazin-6(5H)-one]: no more than 50 nM and 542%.
The matching figures for `Cc1cccc(F)c1-n1nc2c(-c3ccc4c(c3)CN(CCO)CC4)n[nH]c2cc1=O` [Compound 162, 5-(2-fluoro-6-methylphenyl)-3-(2-(2-hydroxyethyl)-1,2,3,4-tetrahydroisoquinolin-7-yl)-1H-pyrazolo[4,3-c]pyridazin-6(5H)-one]: no more than 50 nM and 586%.
As for `COc1cccc(F)c1-n1nc2c(-c3ccc(N4CCC(O)CC4)cc3)n[nH]c2cc1=O` [Compound 139, 5-(2-fluoro-6-methoxyphenyl)-3-(4-(4-hydroxylpiperidin-1-yl)phenyl)-1H-pyrazolo[4,3-c]pyridazin-6(5H)-one], the IC50 at HPK1 was no more than 50 nM. In addition, in the assay with Human Jurkat-E6-1 cells (test compound 3.0 μM), the activity at 3 µM is 315%.
For the molecule `COc1cccc(F)c1-n1nc2c(-c3ccc(N4CCN5CCOC[C@H]5C4)cc3)n[nH]c2cc1=O` [Compound 136, (R)-5-(2-fluoro-6-methoxyphenyl)-3-(4-(hexahydropyrazino[2,1-c][1,4]oxazin-8(1H)-yl)phenyl)-1H-pyrazolo[4,3-c]pyridazin-6(5H)-one], the IC50 at HPK1 is no more than 50 nM. Further, in the assay on Human Jurkat-E6-1 cells (test compound 3.0 μM), the activity at 3 µM is 702%.
The matching figures for `Cc1cccc(F)c1-n1nc2c(-c3ccc(N4CCN(C)C(C(C)(C)O)C4)cc3)n[nH]c2cc1=O` (centres unmarked) [Compound 125, 5-(2-fluoro-6-methylphenyl)-3-(4-(3-(2-hydroxylprop-2-yl)-4-methylpiperazin-1-yl)phenyl)-1H-pyrazolo[4,3-c]pyridazin-6(5H)-one]: no more than 50 nM and 216%.
As to `Cc1cccc(F)c1-n1nc2c(-c3ccc(N4C[C@H]5C[C@@H]4CN5C)cc3)n[nH]c2cc1=O` [Compound 88, 5-(2-fluoro-6-methylphenyl)-3-(4-((1R,4R)-5-methyl-2,5-diazabicyclo[2.2.1]heptan-2-yl)phenyl)-1H-pyrazolo[4,3-c]pyridazin-6(5H)-one], at HPK1, the IC50 fell in the range of 50 to 500 nM. Also, the activity at 3 µM in the assay on Human Jurkat-E6-1 cells (test compound 3.0 μM) came out at 550%.
The matching figures for `Cc1cccc(F)c1-n1nc2c(-c3ccc(N4CCC(O)CC4)cc3)n[nH]c2cc1=O` [Compound 138, 5-(2-fluoro-6-methylphenyl)-3-(4-(4-hydroxylpiperidin-1-yl)phenyl)-1H-pyrazolo[4,3-c]pyridazin-6(5H)-one]: no more than 50 nM and 873%.
For `COc1cccc(F)c1-n1nc2c(-c3ccc(N4CCN(C)CC4)cc3)n[nH]c2c(C)c1=O` [Compound 154, 5-(2-fluoro-6-methoxyphenyl)-7-methyl-3-(4-(4-methylpiperazin-1-yl)phenyl)-1H-pyrazolo[4,3-c]pyridazin-6(5H)-one], at HPK1, the IC50 is 50 to 500 nM. Besides, the activity at 1 µM in the assay on Human Jurkat-E6-1 cells came to 382%.
As to `CCc1cccc(F)c1-n1nc2c(-c3ccc(N4CCN(CCO)CC4)cc3)n[nH]c2cc1=O` [Compound 112, 5-(2-ethyl-6-fluorophenyl)-3-(4-(4-(2-hydroxyethyl)piperazin-1-yl)phenyl)-1H-pyrazolo[4,3-c]pyridazin-6(5H)-one], the IC50 at HPK1 was no more than 50 nM. Further, the activity at 3 µM in the assay on Human Jurkat-E6-1 cells (test compound 3.0 μM) was found to be 703%.
For `COc1cccc(F)c1-n1nc2c(-c3ccc(N4CCC(C)(O)CC4)cc3)n[nH]c2cc1=O` [Compound 140, 5-(2-fluoro-6-methoxyphenyl)-3-(4-(4-hydroxyl-4-methylpiperidin-1-yl)phenyl)-1H-pyrazolo[4,3-c]pyridazin-6(5H)-one] the same measures were no more than 50 nM and 436%.
Take `Cc1cccc(F)c1-n1nc2c(-c3ccc(N4C[C@@H]5C[C@H]4CN5C)cc3)n[nH]c2cc1=O` [Compound 87]: the IC50 at HPK1 is no more than 50 nM. In the assay with Human Jurkat-E6-1 cells (test compound 3.0 μM), the activity at 3 µM is 584%.
Turning to `Cc1cccc(F)c1-n1nc2c(-c3ccc(N4CCN(C)CC4)cc3)n[nH]c2cc1=O` [Compound 1, 5-(2-fluoro-6-methylphenyl)-3-(4-(4-methylpiperazin-1-yl)phenyl)-1H-pyrazolo[4,3-c]pyridazin-6(5H)-one], the IC50 on HPK1 was no more than 50 nM. Also, the activity at 1 µM with Human Jurkat-E6-1 cells was found to be 277%.
As for `COc1cccc(F)c1-n1nc2c(-c3cnc(N4CCOCC4)nc3)n[nH]c2cc1=O` [Compound 111, 5-(2-fluoro-6-methoxyphenyl)-3-(2-morpholinyl-pyrimidin-5-yl)-1H-pyrazolo[4,3-c]pyridazin-6(5H)-one], the IC50 at HPK1 is no more than 50 nM. For the same molecule, the activity at 3 µM in the assay with Human Jurkat-E6-1 cells (test compound 3.0 μM) came out at 522%.
The matching figures for `Cc1cc(C#N)cc(F)c1-n1nc2c(-c3ccc4c(c3)CNCC4)n[nH]c2cc1=O` [Compound 171, 3-fluoro-5-methyl-4-(3-(1,2,3,4-tetrahydroisoquinolin-7-yl)-6-oxo-1H-pyrazolo[4,3-c]pyridazin-5(6H)-yl)benzonitrile]: 50 to 500 nM and 220%.
The matching figures for `Cc1cc(Cl)cc(F)c1-n1nc2c(-c3ccc(N4CCN(C)CC4)nc3)n[nH]c2cc1=O` [Compound 108]: 50 to 500 nM and 312%.
As for `COc1cccc(F)c1-n1nc2c(-c3cccc(N4CCCC(N)C4)c3)n[nH]c2cc1=O` (centres unmarked) [Compound 204], on HPK1, the IC50 was no more than 50 nM. Also, the “Percentage of the amount of IL-2 secreted from compound treated/DMSO-treated cells” value in the assay on Human Jurkat-E6-1 cells (test compound 3.0 μM) is listed as 260%.
Take `COc1cccc(F)c1-n1nc2c(-c3cnc(N4CCOCC4)s3)n[nH]c2cc1=O` [Compound 148]: on HPK1, the IC50 was no more than 50 nM. Moreover, in the assay on Human Jurkat-E6-1 cells, the activity at 1 µM amounted to 531%.
As to `Cc1ccccc1-n1nc2c(-c3ccc(N4CCN(C)CC4)cc3)n[nH]c2cc1=O` [Compound 5, 5-(2-methylphenyl)-3-(4-(4-methylpiperazin-1-yl)phenyl)-1H-pyrazolo[4,3-c]pyridazin-6(5H)-one], the IC50 on HPK1 lay in the range of 50 to 500 nM. Further, the activity at 1 µM in the assay with Human Jurkat-E6-1 cells turned out to be 162%.
